Measurements taken from patent US20060160869A1, “Ubiquitin ligase inhibitors” (Rigel Pharmaceuticals, Inc., priority 2005, published 2006).

Experiments:
[1] = molecular target: E3 (His-APC11/APC2, "APC") (Homo sapiens, UniProt Q9NYG5+Q9UJX6); assay: Plate-based E3 ligase assay (APC FLAG), auto-ubiquitination; type: biochemical; conditions: Table 2; read-out: APC IC50
Protocol: (§1) E3 (His-APC11/APC2—“APC”) auto-ubiquitination was measured as described in U.S. patent application Ser. No. 09/826,312 (Publication No. US-2002-0042083-A1), which is incorporated herein in its entirety. Details of the protocol are described below. Activity in the presence of the compound was determined relative to a parallel control in which only DMSO was added. Values of the IC50 were typically determined using 6 or 8 different concentrations of the compound, although as few as 2 concentrations may be used to approximate the IC50 value.
(§2) Nickel-coated 96-well plates (Pierce 15242) were blocked for 1 hour with 100 μl of blocking buffer at room temperature. The plates were washed 4 times with 225 μl of 1×PBS and 80 μl of the reaction buffer were added that contained 100 ng/well of Flag-ubiquitin. To this, 10 μl of the test compound diluted in DMSO were added. After the test compound was added, 10 μl of E1 (human), E2 (Ubch5c), and APC in Protein Buffer was added to obtain a final concentration of 5 ng/well of E1, 20 ng/well: of E2 and 100 ng/well of APC. The plate were shaken for 10 minutes and incubated at room temperature for 1 hour. After incubation, the plates were washed 4 times with 225 μl of 1×PBS and 100 μl/well of Antibody Mix were added to each well. The plates were incubate at room temperature for another hour after which they were washed 4 times with 225 μl of 1×PBS and 100 μl/well of Lumino substrate were added to each well. The luminescence was measured by using a BMG luminescence microplate reader.
APC Plate/gel is Anaphase Promoting Complex. This protein also belongs to E3 RING finger ligase group.

[2] = system: p53 reporter system in p53 wild-type U2OS cell line; assay: p53-dependent transcription reporter assay, U20SRE; type: cell-based; conditions: p53 +ve cell type; maximal fold induction over DMSO control
Excerpt: (§3) Stable lines of U2OS (osteosarcoma; Wild-type p53 positive), HCT116 (colorectal carcinoma; Wild-type p53 positive) and H1299 (lung non-small cell carcinoma; p53 null) carrying p53-dependent transcriptional regulatory element linked to a Luciferase reporter gene and H1299 carrying a 5′-regulatory region of GADD45 linked to Luciferase were used.
Day 1: Cells were re-plated into 96-well plates at suitable densities to make 50-60% confluence on Day 2. The plating densities are as follows: 7.5×10^3 cells/well (or 2.5×10^4 cells/cm^2) for U2OS; 1.5×10^4 cells/well (or 5.0×10^4 cells/cm^2) for HCT116; and 1.0×10^4 cells/well (or 3.3×10^4 cells/cm^2) for H1299.
(§4) Day 2: The compounds or control drugs were diluted in dimethyl sulfoxide (DMSO) and added to the wells to create 6-points/2-fold serial dilution (20, 10, 5, 2.5, 1.25, 0.625 and 0 μM) for each compound. The DMSO concentration was adjusted to 0.2% in all wells.
(§5) Day 3: Twenty to 24 hours after compound addition, cells were twice washed with PBS and lysed with Glo-lysis buffer (100 μl/well, Promega; Cat#E2661). Plates were subjected to gentle agitation on a table-top shaker for 5 minutes at room temperature. Fifty μl of lysate was transferred to an assay plate to test for luciferase activity and mixed with 2× assay buffer (Promega; Cat# E1483). The reaction mixture was left at room temperature for 2 minutes and then luminescence was measure by a luminometer (Victor™, 1420 Multilabel Counter, Wallac).
(§6) Data analysis was done on Excel software (Microsoft). Values in Table 4 represent maximal fold induction over negative control (DMSO only) and are the mean of at least duplicate experiments.
U20SRE is a p53 wild-type U2OS cell line containing p53 reporter system. If the compound acts against MDM2, p53 activity increases.

[3] = system: p53 reporter system in p53 wild-type A549 cell line; assay: p53-dependent transcription reporter assay, A549RE; type: cell-based; conditions: p53 +ve cell type; maximal fold induction over DMSO control
Protocol: as §3, §4, §5, §6
A549RE is a p53 wild-type A549 cell line containing p53 reporter system. If the compound acts against MDM2, p53 activity increases.

MDM2 = MDM2 (Homo sapiens, UniProt Q00987); assay: Plate-based E3 ligase assay, MDM2 autoubiquitination (MDM2-FLAG); type: biochemical; conditions: Table 2; read-out: MDM2 IC50
Protocol: as §1, §2
In similar manner, autoubiquitination of the E3 MDM2 was determined (MDM2-FLAG). Further instruction in such assays can be found in U.S. patent application Ser. No. 10/108,767 (Publication No. US-2003-0104474 A1), which is incorporated herein in its entirety.
hMDM2 Plate/Gel is Mouse double minute 2, human homolog. This protein belongs to the E3 RING finger ligase group.

Chain of MDM2 (Q00987 whole entry): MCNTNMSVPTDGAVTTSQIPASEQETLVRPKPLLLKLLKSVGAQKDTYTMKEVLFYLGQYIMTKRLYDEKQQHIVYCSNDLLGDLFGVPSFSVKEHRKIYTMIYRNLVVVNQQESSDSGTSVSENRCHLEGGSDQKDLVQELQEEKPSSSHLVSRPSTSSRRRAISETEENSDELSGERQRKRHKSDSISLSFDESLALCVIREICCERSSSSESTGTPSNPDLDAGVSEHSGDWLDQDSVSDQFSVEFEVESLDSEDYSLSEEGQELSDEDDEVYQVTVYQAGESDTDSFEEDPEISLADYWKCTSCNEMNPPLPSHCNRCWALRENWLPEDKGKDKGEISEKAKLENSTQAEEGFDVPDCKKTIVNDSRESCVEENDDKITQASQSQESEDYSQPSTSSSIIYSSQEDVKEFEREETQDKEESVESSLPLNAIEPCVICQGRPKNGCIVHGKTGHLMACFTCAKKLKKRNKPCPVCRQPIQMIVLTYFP
Chain of E3 (His-APC11/APC2, "APC") (Q9NYG5 whole entry): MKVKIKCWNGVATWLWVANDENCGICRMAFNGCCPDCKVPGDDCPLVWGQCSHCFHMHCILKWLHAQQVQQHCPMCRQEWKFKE
Chain of E3 (His-APC11/APC2, "APC") (Q9UJX6 whole entry): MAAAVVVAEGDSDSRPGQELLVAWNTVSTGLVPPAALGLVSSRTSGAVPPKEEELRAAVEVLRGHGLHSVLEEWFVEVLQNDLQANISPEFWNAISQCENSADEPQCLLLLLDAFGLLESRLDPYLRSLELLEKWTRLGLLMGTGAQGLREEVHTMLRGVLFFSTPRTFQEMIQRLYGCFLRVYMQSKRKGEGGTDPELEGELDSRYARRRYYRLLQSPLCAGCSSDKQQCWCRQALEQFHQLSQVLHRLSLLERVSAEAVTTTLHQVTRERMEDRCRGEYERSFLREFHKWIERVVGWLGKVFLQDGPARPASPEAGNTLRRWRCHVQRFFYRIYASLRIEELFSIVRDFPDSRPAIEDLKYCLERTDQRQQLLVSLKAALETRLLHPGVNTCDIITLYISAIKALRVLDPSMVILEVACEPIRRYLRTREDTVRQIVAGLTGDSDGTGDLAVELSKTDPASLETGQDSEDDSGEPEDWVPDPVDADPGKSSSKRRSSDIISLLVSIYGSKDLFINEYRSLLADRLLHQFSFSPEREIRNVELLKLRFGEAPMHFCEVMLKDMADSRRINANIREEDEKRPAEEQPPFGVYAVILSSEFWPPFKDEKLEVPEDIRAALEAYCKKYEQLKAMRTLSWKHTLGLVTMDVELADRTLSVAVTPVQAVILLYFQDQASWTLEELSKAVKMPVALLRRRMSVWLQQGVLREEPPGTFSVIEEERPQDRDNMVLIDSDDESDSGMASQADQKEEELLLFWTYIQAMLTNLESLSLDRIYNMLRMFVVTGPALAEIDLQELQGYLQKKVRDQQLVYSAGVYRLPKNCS

- IC50 [1]: ≥ 20 µM
- Fold Induction of p53 activity, U20SRE [2]: a (a means 2 or less)
- Fold Induction of p53 activity, A549RE [3]: a (a means 2 or less)
- IC50 (MDM2): ≥ 20 µM
SMILES: CC(C)N(CCN(Cc1ccc(C(=O)N2CCNCC2)cc1)c1nc(-c2cccc([N+](=O)[O-])c2)cs1)C(C)C [compound 233]
